Counter-ions that a name gives are not always drawn. Like-named read-outs stand apart in the source and are kept apart here.
Experiments:
Type in all cases: biochemical
Aβ1-42 = molecular target: T1, Aβ1-42 (Homo sapiens, UniProt P05067); assay: Thioflavin T spectrofluorescence assay: inhibition of Aβ1-42 aggregation; conditions: 24 h
T1 construct: Aβ1-42 lyophilized powder (Bachem) was reconstituted in hexafluoroisopropanol (HFIP) to 1 mM; purchased Bachem
Description: (§1) The objective of this example was to evaluate the capacity of the compounds of the invention to inhibit the aggregation of (Aβ)1-42 peptide and to disaggregate pre-aggregated Aβ1-42 using a thioflavin T spectrofluorescence assay.
(§2) Aβ1-42 lyophilized powder (Bachem) was reconstituted in hexafluoroisopropanol (HFIP) to 1 mM. The peptide solution was sonicated for 15 min at room temperature, agitated overnight, and aliquots were placed into non-siliconized microcentrifuge tubes. The HFIP was then evaporated under a stream of argon. The resulting peptide film was dried under vacuum for 10 min, tightly sealed and stored at −80° C. until used.
Aβ1-42 peptide film was dissolved in DMSO to reach 400 μM. Assay solution in PBS was prepared in non-siliconized incubation tubes to reach the following concentrations: 330 μM small molecule, 33 μM Aβ1-42, 10 μM thioflavin T (ThT), and 12.8% DMSO. Therefore, the final molar ratio of small molecule to Aβ1-42 was 10:1. A positive control without a small molecule was prepared to measure maximum RFU. A negative control without Aβ1-42 was prepared for each small molecule. 3-aminopyrazole trimer (Trimer) was tested in all assays to ascertain reproducibility between independent experiments. The solutions were then incubated for 24 h at 37° C., and the spectrofluorescence (relative fluorescence units; RFU) read in six replicates in black 384-well assay plates (Perkin-Elmer) on a Perkin-Elmer FluoroCount spectrofluorometer. Inhibition of aggregation is expressed as mean % inhibition±1 standard deviation (SD) according to the following equation: […]

preformed Aβ1-42 fibers = molecular target: T2, preformed Aβ1-42 fibers (Homo sapiens, UniProt P05067); assay: Thioflavin T spectrofluorescence assay: disaggregation of preformed Aβ1-42 fibers; conditions: Table 5; 330 μM small molecule, 10:1 molar ratio to pre-aggregated Aβ1-42, additional 24 h at 37° C.; mean ± SD of two independent experiments
T2 construct: Aβ1-42 lyophilized powder (Bachem) was reconstituted in hexafluoroisopropanol (HFIP) to 1 mM; purchased Bachem
Description: as §1, §2
This solution was then allowed to aggregate at 37° C. for 24 h after which a small molecule and ThT were added to obtain a final concentration of 330 μM small molecule and 10 μM ThT. […] This solution was then incubated for additional 24 h at 37° C. The spectrofluorescence was then measured and % disaggregation calculated. Disaggregation is expressed as mean % disaggregation±1 standard deviation (SD) according to the same equation as for the inhibition of aggregation.

[1] = molecular target: T3, Oregon Green labeled Aβ(1-42) (Homo sapiens, UniProt P05067); assay: FCS-assay with 5 nM Oregon Green labeled Aβ-peptide (disaggregation of preformed aggregates)
T3 construct: DMSO-stock solutions of Oregon Green labeled Aβ(1-42) 1:1 with deionized water
Description: In order to analyse the disaggregating properties of the compounds, preformed aggregates were used, which were induced straight before the FCS-measurement by diluting low concentrated (500 nM) DMSO-stock solutions of Oregon Green labeled Aβ(1-42) 1:1 with deionized water. The final concentration of Oregon Green labeled Aβ-peptide was 5 nM in 1×PBS and 3% DMSO.
To improve the reproducibility of the measurements of the concentration dependencies all samples were prepared fourfold.

[2] = read-out: Percentage of the “number of peaks” value compared to the control reaction without added ligand
[3] = read-out: Percentage of the “peaks × height“ value compared to the control reaction without added ligand

T1 sequence (P05067 672-713 limits assumed): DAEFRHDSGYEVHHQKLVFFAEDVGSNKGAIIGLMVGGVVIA
T2 sequence (P05067 672-713 limits assumed): as above
T3 sequence (P05067 672-713 limits assumed): as above

| Compound | inhibition at 330 µM (Aβ1-42) | % disaggregation (preformed Aβ1-42 fibers) | remaining activity at 0.01 µM [1, 2] | remaining activity at 0.1 µM [1, 2] | remaining activity at 0.2 µM [1, 2] | remaining activity at 1 µM [1, 2] | remaining activity at 5 µM [1, 2] | remaining activity at 25 µM [1, 2] | remaining activity at 100 µM [1, 2] | remaining activity at 0.01 µM [1, 3] | remaining activity at 0.1 µM [1, 3] | remaining activity at 0.2 µM [1, 3] | remaining activity at 1 µM [1, 3] | remaining activity at 5 µM [1, 3] | remaining activity at 25 µM [1, 3] | remaining activity at 100 µM [1, 3] |
| --- | --- | --- | --- | --- | --- | --- | --- | --- | --- | --- | --- | --- | --- | --- | --- | --- |
| Clc1ccc(-c2cc(NCCNc3cc(-c4cccs4)[nH]n3)n[nH]2)cc1 [Compound 1ah, N-(5-(4-Chlorophenyl)-1H-pyrazol-3-yl)-N′-(5-(thiophen-2-yl)-1H-pyrazol-3-yl)ethane-1,2-diamine bishydrochloride] | 89.1 ± 2.5% | 88.8 ± 1.6% | 44.4% | 61.1% | 60.8% | 83.7% | 82.6% | 75% | 40.9% | 38.9% | 44.8% | 69.3% | 136% | 112% | 254% | 143% |
| Cc1ccc(-c2cc(NCCNc3cc(-c4ccc(C)cc4)[nH]n3)n[nH]2)cc1 [Compound 1d, N^1,N^2-bis(5-p-Tolyl-1H-pyrazol-3-yl)ethane-1,2-diamine bishydrochloride] | 88.3 ± 1% | 77.1 ± 2.5% |  |  | 72.8% |  |  |  |  |  |  | 83.1% |  |  |  |  |
| Clc1ccc(-c2cc(NCCNc3cc(-c4ccc(Cl)cc4)[nH]n3)n[nH]2)cc1 [Compound 1f, N^1,N^2-bis(5-(4-Chlorophenyl)-1H-pyrazol-3-yl)ethane-1,2-diamine bishydrochloride] | 86.5 ± 7.4% | 78.4 ± 1.7% |  |  | 55.9% |  |  |  |  |  |  | 101% |  |  |  |  |
| Brc1ccc(-c2cc(NCCNc3cc(-c4ccc(Br)cc4)[nH]n3)n[nH]2)cc1 [Compound 1u, N^1,N^2-bis(5-(4-Bromophenyl)-1H-pyrazol-3-yl)ethane-1,2-diamine bishydrochloride] | 77.2 ± 1.5% | 78.8 ± 5.1% |  |  | 58% | 60% | 47.5% | 45% | 35% |  |  | 59.2% | 62.4% | 48% | 49.2% | 27.2% |

— patent publication US20100144793A1, “NOVEL COMPOUNDS FOR THE TREATMENT OF DISEASES ASSOCIATED WITH AMYLOID OR AMYLOID-LIKE PROTEINS” (AC IMMUNE SA, priority 2006, published 2010)
